Experiment [1] concerns HeLa cell line. As to the kind of experiment: Anti-proliferative activity in HeLa cells (MTT assay). Format: cell-based. As to conditions: HeLa cell line; for IC50: Homo sapiens. On the procedure:
Particularly, HeLa cell line (ATCC, USA) was treated with the compounds of Table 1 respectively, and then IC50 (the half maximal inhibitory concentration) was investigated (Table 1).
HeLa cells were treated with 100 nM, 250 nM, 500 nM and 1 μM of ethyl(2-methyl-3{(E)-[(naphtho[2,1-b]furan-2-ylcarbonyl)hydrazono]methyl}-1H-indole-1-yl)acetate or DMSO for 4 days. Then, the cell growth was confirmed by MTT assay. All the obtained numbers were calculated by normalizing the value of Day 0. The data presents the mean value obtained from the assay performed in triplicate.
Particularly, HeLa cells were distributed in a 96-well plate at the density of 2×10^3 cells/well. The cells were treated with DMSO or the compound of the present invention, to which MTT reagent was added at the concentration of 10 μl/well. 2 hours later, OD450 was measured, which became the value of Day 0. 4 days later, MTT reagent was added thereto again. 2 hours later, OD450 was measured. The data presents the mean value obtained from the assay performed in triplicate.
For orientation: Formazan colour is commonly taken as a measure of viable cells.

The test system of experiment [2] is K562/ADR. The experiment in a line: Cytotoxicity MTT assay, multi-drug resistant K562/ADR. As to conditions: for IC50: Homo sapiens, 96 h, K562/ADR, MTT, 4 days; for resistance factor (number in the bracket): ratio of IC50 of K562/ADR to IC50 of parent K562. The class given is cell-based. On the procedure:
(§1) Particularly, K562, MCF7 (Bio-Evaluation Center, Korea Research Institute of Bioscience and Biotechnology, Korea), and the multi-drug resistant cell lines thereof, K562/ADR and MCF7/ADR (Bio-Evaluation Center, Korea Research Institute of Bioscience and Biotechnology, Korea) were cultured in microtiter plate (1-3×10^3 cells/well). Then, the cells were treated with ethyl(2-methyl-3{(E)-[(naphtho[2,1-b]furan-2-ylcarbonyl)hydrazono]methyl}-1H-indole-1-yl)acetate, doxorubicin, or taxol, followed by culture for 4 days. Cytotoxicity was investigated by MTT assay by the same manner as described in Example <1-2>. IC50 was calculated by long-dose response curve. The data presents the mean value obtained from the assay performed in triplicate (Table 3).
(§2) The resistance factor of the multi-drug resistant cell line indicates the ratio of IC50 of the multi-drug resistant cell line to IC50 of the parent cell line showing no resistance, which was presented as a number in the bracket.

Experiment [3] relates to MCF7/ADR. As to the kind of experiment: Cytotoxicity MTT assay, multi-drug resistant MCF7/ADR. As to conditions: for IC50: Homo sapiens, NCI/ADR-RES, 96 h, MCF7/ADR, MTT, 4 days; for resistance factor (number in the bracket): ratio of IC50 of MCF7/ADR to IC50 of parent MCF7. The class given is cell-based. On the procedure: as §1, §2
For experiment [4], the system named is MCF7. The experiment in a line: Cytotoxicity MTT assay, MCF7. The class given is cell-based. As to conditions: Homo sapiens, 96 h, 4 days. On the procedure: as §1
Experiment [5] has as its system K562. As to the kind of experiment: Cytotoxicity MTT assay, K562. The class given is cell-based. Conditions: Homo sapiens, 96 h, 4 days. On the procedure: as §1
The test system of experiment [6] is HeLa cells. The experiment in a line: Immunofluorescence of intracellular microtubules and chromosomes. Conditions: 17 hours, Taxol 100 μM, nocodazole 200 ng/ml, compound 5 μM. Format: cell-based. On the procedure: To investigate the effect of ethyl(2-methyl-3{(E)-[(naphtho[2,1-b]furan-2-ylcarbonyl)hydrazono]methyl}-1H-indole-1-yl)acetate on intracellular microtubules, HeLa cells were treated with DMSO, Taxol (100 μM), nocodazole (200 ng/ml), or ethyl(2-methyl-3{(E)-[(naphtho[2,1-b]furan-2-ylcarbonyl)hydrazono]methyl}-1H-indole-1-yl)acetate (5 μM) for 17 hours. After fixing the cells, the cells were immuno-stained with Alexa Fluor 488-conjugated anti-tubulin antibody and Hoechst 33342 to confirm α-tubulin and chromosomes.

For experiment [7], the system named is FVB/N mouse induced with skin tumor. The experiment in a line: DMBA/TPA induced skin tumor model. Format: in vivo. On the procedure:
In this invention, the male FVB/N mice (6-7 weeks, Jackson Laboratory, USA) were raised under the condition of 12 hr bright lighting/12 hr dim lighting at the temperature of 24±2° C. with the humidity of 50±10% with water and feed provided freely. The care and process of the test animal was reviewed and approved by Institutional Animal Care and Use Committee (IACUC), Korea Research Institute of Bioscience and Biotechnology (KRIBB). DMBA (7,12-dimethylbenz[α]anthracene), TPA (12-O-tetradecanoylphorbol-13-acetate) and cholchicine were purchased from Sigma-Aldrich, and the synthesized ethyl(2-methyl-3{(E)-[(naphtho[2,1-b]furan-2-ylcarbonyl)hydrazono]methyl}-1H-indole-1-yl)acetate was provided from Dr. Thimmegowda.
Particularly, the dorsal skin of the said FVB/N mouse was shaved two days before the experiment. 100 μg of DMBA was added to 0.2 ml of acetone, which was treated to the mouse by single-local administration for 1 week to induce tumor. 5 fig of TPA was added to 0.2 ml of acetone, which was treated to the above mouse induced with tumor […] for 15 weeks to grow the tumor. 500 nM of ethyl(2-methyl-3{(E)-[(naphtho[2,1-b]furan-2-ylcarbonyl)hydrazono]methyl}-1H-indole-1-yl)acetate or cholchicine was dissolved in 0.2 ml of acetone, which was treated to the above mouse locally for 30 minutes each time for 15 weeks. Each group was composed of at least 10 mice and total 4 groups were prepared:
Group 1: DMBA and acetone treated group (negative control)
Group 2: DMBA and TPA treated group (positive control)
Group 3: DMBA/TPA and cholchicine treated group (experimental group 1)
Group 4: DMBA/TPA and ethyl(2-methyl-3{(E)-[(naphtho[2,1-b]furan-2-ylcarbonyl)hydrazono]methyl}-1H-indole-1-yl)acetate treated group (experimental group 2).
In addition, skin tumor such as papilloma was checked every week during the whole period of experiment. The tumor in the size of at least 2 mm was judged as positive. 15 weeks later, the mice were sacrificed with CO2. The skin tumor was extracted for histopathological/biochemical analysis.
The average number and the volume of tumor in each group were calculated.
Each mouse group was treated with different materials by the same manner as described in Example <8-2>, followed by observation for 15 weeks, and then the number of mice having skin tumor was counted. Tumor development rate was presented as %.
The mouse induced with skin tumor by the same manner as described in Example <8-2> was treated with DMBA, and then the induced tumors were observed and weighed for 15 weeks to produce the average weight of tumor.

Structures are written as SMILES.

Turning to `Cc1c(/C=N/NC(=O)c2cc3c(ccc4ccccc43)o2)c2ccccc2n1C` [A], in experiment [1], the “decrease of anti-proliferative activity compared with STK899704” value is reported as “two times decreased” and the IC50 was found to be 0.44 µM.

Regarding `C=CCn1c(C)c(/C=N/NC(=O)c2cc3c(ccc4ccccc43)o2)c2ccccc21` [B, (E)-N′-((1-allyl-2-methyl-1H-indol-3-yl)methylene)naphtho[2,1-b]furan-2-carbohydrazide], inhibition in experiment [1] was half-maximal at 1.96 µM (IC50).

With `Cc1c(/C=N/NC(=O)c2cc3c(ccc4ccccc43)o2)c2ccccc2n1CC#N` [C, (E)-N′-((1-(cyanomethyl)-2-methyl-1H-indol-3-yl)methylene)naphtho[2,1-b]furan-2-carbohydrazide], in experiment [1], the 50% inhibitory concentration (IC50) was 2.61 µM.

For the compound `O=C(N/N=C/c1ccc(-c2ccc([N+](=O)[O-])cc2)o1)c1cc2c(ccc3ccccc32)o1` [Compound F, (E)-N′-((5-(4-nitrophenyl)furan-2-yl)methylene)naphtho[2,1-b]furan-2-carbohydrazide], 2.88 µM corresponded to half-maximal inhibition in experiment [1] (IC50).

Regarding `O=C(N/N=C/c1ccc(-c2ccc(Br)cc2)o1)c1cc2c(ccc3ccccc32)o1` [D], the IC50 in experiment [1] was 2.24 µM.

As to `COc1cccc2c1C(=O)c1c(O)c3c(c(O)c1C2=O)C[C@@](O)(C(=O)CO)C[C@@H]3O[C@H]1C[C@H](N)[C@H](O)[C@H](C)O1` [Doxorubicin], the IC50 was 3800 µM in experiment [2], 5230 µM in experiment [3], 53 µM in experiment [4] and 3.3 µM in experiment [5]. The entries for the “resistance factor (number in the bracket)” value in experiment [2] and in experiment [3] were 1153 and 98, respectively.

For the compound `O=C(N/N=C/c1ccc(-c2cccc(Cl)c2Cl)o1)c1cc2c(ccc3ccccc32)o1` [E], the IC50 in experiment [1] was found to be 2.61 µM.

In the case of `Cc1ccc(-c2ccc(/C=N/NC(=O)c3cc4c(ccc5ccccc54)o3)o2)cc1[N+](=O)[O-]` [G, (E)-N′-((5-(4-methyl-3-nitrophenyl)furan-2-yl)methylene)naphtho[2,1-b]furan-2-carbohydrazide], the 50% inhibitory concentration (IC50) in experiment [1] stood at 3.11 µM.

For the compound `O=C(N/N=C/c1ccc([N+](=O)[O-])o1)c1cc2c(ccc3ccccc32)o1` [H, (E)-N′-((5-nitrofuran-2-yl)methylene)naphtho[2,1-b]furan-2-carbohydrazide], in experiment [1], the IC50 turned out to be 5.4 µM.

As to `O=C(N/N=C/c1ccc(OCc2ccccc2)cc1)c1cc2c(ccc3ccccc32)o1` [I, (E)-N′-(4-(benzyloxy)benzylidene)naphtho[2,1-b]furan-2-carbohydrazide], it took 3.67 µM to reach half-maximal inhibition in experiment [1] (IC50).

`COc1cccc(/C=N/NC(=O)c2cc3c(ccc4ccccc43)o2)c1O` [J, (E)-N′-(2-hydroxy-3-methoxybenzylidene)naphtho[2,1-b]furan-2-carbohydrazide] returned an IC50 in experiment [1] of 3.97 µM.

In the case of `CC(=O)O[C@H]1C(=O)[C@@]2(C)[C@H]([C@H](OC(=O)c3ccccc3)[C@]3(O)C[C@H](OC(=O)[C@H](O)[C@@H](NC(=O)c4ccccc4)c4ccccc4)C(C)=C1C3(C)C)[C@]1(OC(C)=O)CO[C@@H]1C[C@@H]2O` [Taxol], the IC50 in experiment [2] worked out at 1820 µM; in experiment [3], 1620 µM; in experiment [4], 4.3 µM; in experiment [5] it was 2 µM. Further, the “resistance factor (number in the bracket)” value amounted to 911 in experiment [2] and 377 in experiment [3]. In experiment [6], the “effect on microtubules and chromosomes (immunostaining)” value is reported as “strengthened the polymerization of tubulin so that multi-polar spindle fibers with condensed chromosomes were produced”.

In the case of `COc1cc2c(c(OC)c1OC)-c1ccc(OC)c(=O)cc1[C@@H](NC(C)=O)CC2` [cholchicine, reference compound], the “number of skin tumor” value in experiment [7] (500 nM in 0.2 ml acetone, local, 15 weeks) is “significantly reduced”. Further, the “weight of tumor compared with positive control” value in experiment [7] (15 weeks) is recorded as “significantly lighter”. Moreover, in experiment [7] (15 weeks, 500 nM local), the “average volume of skin tumor reduced compared with positive control” value turned out to be 31.5% and the “decrease of average number of skin tumor compared with positive control” value turned out to be 2.86 times. The “week to which tumor formation was postponed” value in experiment [7] (tumor of at least 2 mm, positive control from 8th week) is given as 9 week.

Take `COC(=O)Nc1nc2ccc(C(=O)c3cccs3)cc2[nH]1` [nocodazole, reference compound]: in experiment [6], the “effect on microtubules and chromosomes (immunostaining)” value was “chromosomes were not fully condensed and microtubules were destroyed”.

As a reminder, the IC50 is the midpoint of a concentration-inhibition curve. The low end stands for inhibition by little substance, the high end for a need for much substance.

Values taken from patent publication US9433607B2, “Composition for prevention or treatment of cancer comprising N-methylenenaphtho[2,1-b]furan-2-carbohydrazide derivatives as an active ingredient” (KOREA RESEARCH INSTITUTE OF BIOSCIENCE AND BIOTECHNOLOGY, priority 2012, dated 2016).
